According to PubChem BioAssay (NCI):
Several values for one entry are separate records, joined by “and”; a condition that tells them apart may be missing. Equal values may be shown once.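 48-hour exposure; five concentrations; linearly interpolated endpoints. The concentration for 50% growth inhibition is given as GI50. TGI: total growth inhibition.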

Key:
Test in all cases: DTP human tumour cell line panel, 48 h
786-0 renal = system: 786-0 renal
SNB-19 CNS = system: SNB-19 CNS
OVCAR-5 ovarian = system: OVCAR-5 ovarian
UACC-62 melanoma = system: UACC-62 melanoma
U251 CNS = system: U251 CNS
HL-60(TB) leukemia = system: HL-60(TB) leukemia
HOP-92 NSCLC = system: HOP-92 NSCLC
LOX IMVI melanoma = system: LOX IMVI melanoma
SF-295 CNS = system: SF-295 CNS
NCI-H460 lung = system: NCI-H460 lung

SMILES: NCCCCCNc1noc(Cc2c[nH]c3cc(Br)ccc23)n1
- GI50 (786-0 renal): 5.24 µM
- TGI (786-0 renal): 27.1 µM
- GI50 (SNB-19 CNS): 7.67 µM
- TGI (SNB-19 CNS): 25.6 µM
- GI50 (OVCAR-5 ovarian): 5.29 µM
- TGI (OVCAR-5 ovarian): 24.6 µM
- GI50 (UACC-62 melanoma): 0.551 µM
- TGI (UACC-62 melanoma): 10.1 µM
- GI50 (U251 CNS): 2.89 µM
- TGI (U251 CNS): 16.6 µM
- GI50 (HL-60(TB) leukemia): 1.66 µM
- TGI (HL-60(TB) leukemia): 9.15 µM
- GI50 (HOP-92 NSCLC): 4.62 µM
- TGI (HOP-92 NSCLC): 33.6 µM
- GI50 (LOX IMVI melanoma): 2.81 µM
- TGI (LOX IMVI melanoma): 17.6 µM
- GI50 (SF-295 CNS): 2.53 µM
- TGI (SF-295 CNS): 25.3 µM
- GI50 (NCI-H460 lung): 3.12 µM
- TGI (NCI-H460 lung): 12 µM

SMILES: CCOC(=O)C(Cc1c[nH]c2cc(N(CCO)CCO)ccc12)(NC(C)=O)C(=O)OCC
- GI50 (786-0 renal): 919 µM
- TGI (786-0 renal): > 1000 µM
- GI50 (SNB-19 CNS): > 1000 µM
- TGI (SNB-19 CNS): > 1000 µM
- GI50 (OVCAR-5 ovarian): > 1000 µM
- TGI (OVCAR-5 ovarian): > 1000 µM
- GI50 (UACC-62 melanoma): 66.8 µM
- TGI (UACC-62 melanoma): > 1000 µM
- GI50 (U251 CNS): 309 µM
- TGI (U251 CNS): > 1000 µM
- GI50 (HL-60(TB) leukemia): 133 µM
- TGI (HL-60(TB) leukemia): 489 µM
- GI50 (HOP-92 NSCLC): > 1000 µM
- TGI (HOP-92 NSCLC): > 1000 µM
- GI50 (LOX IMVI melanoma): 217 µM
- TGI (LOX IMVI melanoma): > 1000 µM
- GI50 (SF-295 CNS): > 1000 µM
- TGI (SF-295 CNS): > 1000 µM
- GI50 (NCI-H460 lung): 433 µM
- TGI (NCI-H460 lung): > 1000 µM

SMILES: CC(C)(C)c1cc(C(=O)Nc2ccc(C(=O)NCCN)cc2)cc(C(C)(C)C)c1
- GI50 (786-0 renal): 1.56 µM
- TGI (786-0 renal): 3.07 µM
- GI50 (SNB-19 CNS): 3.65 µM
- TGI (SNB-19 CNS): 16.6 µM
- GI50 (OVCAR-5 ovarian): 6.07 µM
- TGI (OVCAR-5 ovarian): 22.8 µM
- GI50 (UACC-62 melanoma): 1.86 µM
- TGI (UACC-62 melanoma): 3.56 µM
- GI50 (U251 CNS): 1.91 µM
- TGI (U251 CNS): 3.88 µM
- GI50 (HL-60(TB) leukemia): 1.9 µM
- TGI (HL-60(TB) leukemia): 3.87 µM
- GI50 (HOP-92 NSCLC): 2.82 µM
- TGI (HOP-92 NSCLC): 12.6 µM
- GI50 (LOX IMVI melanoma): 1.65 µM
- TGI (LOX IMVI melanoma): 3.16 µM
- GI50 (SF-295 CNS): 1.73 µM
- TGI (SF-295 CNS): 3.47 µM
- GI50 (NCI-H460 lung): 1.93 µM
- TGI (NCI-H460 lung): 3.73 µM

SMILES: CCCCCCCCOCC(O)CO (stereo not given)
- TGI (786-0 renal): > 100 µM
- TGI (SNB-19 CNS): > 100 µM
- TGI (OVCAR-5 ovarian): > 100 µM
- TGI (UACC-62 melanoma): > 100 µM
- TGI (U251 CNS): > 100 µM
- TGI (HL-60(TB) leukemia): > 100 µM
- TGI (HOP-92 NSCLC): > 100 µM
- TGI (LOX IMVI melanoma): > 100 µM
- TGI (SF-295 CNS): > 100 µM
- TGI (NCI-H460 lung): > 100 µM

SMILES: CCOC(=O)C1C=C2O[C@@H]3OC4(CCCCC4)O[C@@H]3C2C2C(=O)CCC(=O)[C@@]12C(=O)OC (stereo not given in full)
- TGI (786-0 renal): > 100 µM
- TGI (SNB-19 CNS): > 100 µM
- TGI (OVCAR-5 ovarian): > 100 µM
- TGI (UACC-62 melanoma): > 100 µM
- TGI (U251 CNS): > 100 µM
- TGI (HL-60(TB) leukemia): > 100 µM
- TGI (HOP-92 NSCLC): > 100 µM
- TGI (LOX IMVI melanoma): > 100 µM
- TGI (SF-295 CNS): > 100 µM
- TGI (NCI-H460 lung): > 100 µM

SMILES: CN1CCN(c2ccc(OC(F)(F)F)c(Nc3ncc4c(n3)-c3c(c(C(N)=O)nn3CCO)CC4)c2)CC1
- GI50 (786-0 renal): 0.428 µM and 0.466 µM
- TGI (786-0 renal): 32.4 µM and > 10 µM
- GI50 (SNB-19 CNS): 0.0611 µM and 0.0674 µM
- TGI (SNB-19 CNS): > 100 µM
- GI50 (OVCAR-5 ovarian): 0.055 µM and 0.0577 µM
- TGI (OVCAR-5 ovarian): 51.8 µM and > 10 µM
- GI50 (UACC-62 melanoma): 0.0454 µM and 0.123 µM
- TGI (UACC-62 melanoma): 21.1 µM and > 4.66 µM
- GI50 (U251 CNS): 0.052 µM and 0.0628 µM
- TGI (U251 CNS): 21.7 µM and > 10 µM
- GI50 (HL-60(TB) leukemia): 0.0237 µM and 0.0298 µM
- TGI (HL-60(TB) leukemia): 0.0744 µM
- GI50 (HOP-92 NSCLC): 0.545 µM and 0.242 µM
- TGI (HOP-92 NSCLC): 14.3 µM and > 3.62 µM
- GI50 (LOX IMVI melanoma): 0.0372 µM and 0.0519 µM
- TGI (LOX IMVI melanoma): 16.1 µM and > 3.87 µM
- GI50 (SF-295 CNS): 0.0575 µM and 0.244 µM
- TGI (SF-295 CNS): 18.6 µM and > 10 µM
- GI50 (NCI-H460 lung): 0.0391 µM and 0.0849 µM
- TGI (NCI-H460 lung): 14.9 µM and > 10 µM

SMILES: C1OC1CN1CCN(CC2CO2)CC1 (stereo not given)
- TGI (786-0 renal): > 100 µM
- TGI (SNB-19 CNS): > 100 µM
- TGI (OVCAR-5 ovarian): > 100 µM
- TGI (UACC-62 melanoma): > 68.5 µM
- TGI (U251 CNS): > 100 µM
- TGI (HL-60(TB) leukemia): > 88.7 µM
- TGI (HOP-92 NSCLC): > 100 µM
- TGI (LOX IMVI melanoma): > 100 µM
- TGI (SF-295 CNS): > 100 µM
- TGI (NCI-H460 lung): > 100 µM

SMILES: CC[C@@]1(OC(=O)C(N)CCCCN)C(=O)OCc2c1cc1n(c2=O)Cc2cc3ccccc3nc2-1 (stereo not given in full)
- TGI (786-0 renal): 0.163 µM
- TGI (SNB-19 CNS): 12.2 µM
- TGI (OVCAR-5 ovarian): 3.86 µM
- TGI (UACC-62 melanoma): 0.0707 µM
- TGI (U251 CNS): > 11.6 µM
- TGI (HL-60(TB) leukemia): 0.127 µM
- TGI (HOP-92 NSCLC): 1.72 µM
- TGI (LOX IMVI melanoma): 0.18 µM
- TGI (SF-295 CNS): 0.813 µM
- TGI (NCI-H460 lung): 0.372 µM

SMILES: Cc1cc(C(=O)/C=C/c2ccc[nH]2)ccc1-n1ccc(C(F)(F)F)n1
- GI50 (786-0 renal): 3.54 µM
- TGI (786-0 renal): > 100 µM
- GI50 (SNB-19 CNS): 21.4 µM
- TGI (SNB-19 CNS): > 100 µM
- GI50 (OVCAR-5 ovarian): > 100 µM
- TGI (OVCAR-5 ovarian): > 100 µM
- GI50 (UACC-62 melanoma): 21.4 µM
- TGI (UACC-62 melanoma): > 100 µM
- GI50 (U251 CNS): 3.5 µM
- TGI (U251 CNS): > 100 µM
- GI50 (HL-60(TB) leukemia): 0.457 µM
- TGI (HL-60(TB) leukemia): > 100 µM
- GI50 (HOP-92 NSCLC): 11.4 µM
- TGI (HOP-92 NSCLC): > 100 µM
- GI50 (LOX IMVI melanoma): 34.8 µM
- TGI (LOX IMVI melanoma): > 100 µM
- GI50 (SF-295 CNS): 7.97 µM
- TGI (SF-295 CNS): > 100 µM
- GI50 (NCI-H460 lung): 24.3 µM
- TGI (NCI-H460 lung): > 100 µM

SMILES: CN(C)C(=O)OCc1nc2c(N3CCOCC3)nc(-c3ccccc3)nc2n1C
- GI50 (786-0 renal): 0.892 µM
- TGI (786-0 renal): 2.31 µM
- GI50 (SNB-19 CNS): 1.53 µM
- TGI (SNB-19 CNS): 2.93 µM
- GI50 (OVCAR-5 ovarian): 1.6 µM
- TGI (OVCAR-5 ovarian): 3.26 µM
- GI50 (UACC-62 melanoma): 1.39 µM
- TGI (UACC-62 melanoma): 2.73 µM
- GI50 (U251 CNS): 1.47 µM
- TGI (U251 CNS): 2.98 µM
- GI50 (HL-60(TB) leukemia): 0.375 µM
- TGI (HL-60(TB) leukemia): 1.96 µM
- GI50 (HOP-92 NSCLC): 0.399 µM
- TGI (HOP-92 NSCLC): 1.24 µM
- GI50 (LOX IMVI melanoma): 0.183 µM
- TGI (LOX IMVI melanoma): 0.402 µM
- GI50 (SF-295 CNS): 1.65 µM
- TGI (SF-295 CNS): 3.08 µM
- GI50 (NCI-H460 lung): 1.66 µM
- TGI (NCI-H460 lung): 3.52 µM

SMILES: C=CC(COC(=O)C(C)(C)OC(C)=O)c1ccc(OC(=O)C(C)C)c(OC)c1 (stereo not given)
- TGI (786-0 renal): > 24.9 µM
- TGI (SNB-19 CNS): 23.2 µM
- TGI (OVCAR-5 ovarian): 32.5 µM
- TGI (UACC-62 melanoma): 27.8 µM
- TGI (U251 CNS): 25.8 µM
- TGI (HL-60(TB) leukemia): > 49 µM
- TGI (HOP-92 NSCLC): 11.7 µM
- TGI (LOX IMVI melanoma): > 33.3 µM
- TGI (SF-295 CNS): 19.9 µM
- TGI (NCI-H460 lung): 7.78 µM
